From publication PMC13340911 (Archives of biochemistry and biophysics, 2025)
Where a chain is given by its changes, count along the chain named.

Key:
[1] = target: T1, Nocturnin (NOCT) (Homo sapiens, UniProt Q9UK39); experiment: steady-state phosphatase kinetics of purified NOCT; format: biochemical
T1 sequence (Q9UK39 122-431): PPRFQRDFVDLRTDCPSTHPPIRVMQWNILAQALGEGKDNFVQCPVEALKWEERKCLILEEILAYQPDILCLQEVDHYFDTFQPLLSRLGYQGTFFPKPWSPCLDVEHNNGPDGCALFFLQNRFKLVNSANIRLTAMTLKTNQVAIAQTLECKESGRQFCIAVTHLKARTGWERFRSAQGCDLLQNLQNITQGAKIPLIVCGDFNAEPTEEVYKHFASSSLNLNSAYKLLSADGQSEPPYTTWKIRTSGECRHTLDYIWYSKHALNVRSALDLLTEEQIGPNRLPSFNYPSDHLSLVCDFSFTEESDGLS

[2] = target: T1, Nocturnin (NOCT); experiment: NADPH intrinsic fluorescence titration; format: binding
[3] = target: T2, Nocturnin (NOCT) (Homo sapiens, UniProt Q9UK39, N149A); experiment: NADPH intrinsic fluorescence titration; format: binding
T2 sequence (Q9UK39 122-431 N149A): T1 sequence (Q9UK39 122-431) with N28A

[4] = target: T3, Nocturnin (NOCT) (Homo sapiens, UniProt Q9UK39, H286N); experiment: NADPH intrinsic fluorescence titration; format: binding
T3 sequence (Q9UK39 122-431 H286N): T1 sequence (Q9UK39 122-431) with H165N

[5] = target: T4, Nocturnin (NOCT) (Homo sapiens, UniProt Q9UK39, H414N); experiment: NADPH intrinsic fluorescence titration; format: binding
T4 sequence (Q9UK39 122-431 H414N): T1 sequence (Q9UK39 122-431) with H293N

steady-state phosphatase kinetics of purified NOCT (malachite green); value is k [1]	Kd [2]	Kd [3]	Kd [4]	Kd [5]	Structure (SMILES)
78					NC(=O)c1ccc[n+]([C@@H]2O[C@H](COP(=O)(O)OP(=O)(O)OC[C@H]3O[C@@H](n4cnc5c(N)ncnc54)[C@H](OP(=O)(O)O)[C@@H]3O)[C@@H](O)[C@H]2O)c1 [NADP^+]
	308 µM	473 µM	219 µM	338 µM	NC(=O)C1=CN([C@@H]2O[C@H](COP(=O)(O)OP(=O)(O)OC[C@H]3O[C@@H](n4cnc5c(N)ncnc54)[C@H](OP(=O)(O)O)[C@@H]3O)[C@@H](O)[C@H]2O)C=CC1 [NADPH]
